Measured values published in patent US20100298348A1, “Method of Decreasing Ubiquitylated Protein Levels” (priority 2009, published 2010).

What was measured:
[1] = test system: long-term potentiation (LTP); conditions: cited from earlier work
APP = assay: Western blot of APP and C-terminal fragments in 3xTg-AD mouse brain; format: in vivo; conditions: 5 mg/kg/day
Method: To attempt to determine at what part in the Aβ processing/release pathway ST101 may be active, a series of Western blot analyses of brain extracts from the same mice were conducted. These Westerns blots examined intact APP as well as products of its post-translational processing and subsequent degradation.
FIG. 4 is a Western blot that depicts APP C-terminal fragments detected by antibody CT20 in the brains of ST101-treated (S) 3xTg-AD mice, relative to untreated (C) 3xTg mice-AD.
FIG. 5 is a Western blot that depicts APP and degradation fragments detected by antibody CT20 in the brains of ST101-treated (S) 3xTg-AD mice, relative to untreated (C) 3xTg-AD mice. “CT20” stands for full length APP species, and “Actin” stands for anti-beta-actin antibody as a protein loading control.
FIGS. 10A and 10B are Western blots that depict APP carboxy-terminal fragments detected by antibody CT20 in the brains of ST101-treated (T in FIG. 10A, S in FIG. 10B) 3xTg-AD mice, relative to untreated (C) 3xTg-AD mice. FIG. 10B is from a separate experiment that used the same brain extract used in the experiment for FIG. 10A. Animals were approximately 14.5 months old at sacrifice after 2.5 months of treatment with ST101 at 5 mg/kg/day in drinking water. * denotes a control animal with low levels of CTFs.
FIGS. 10C and 10D are Western blots that depict APP carboxy-terminal fragments detected by an APP C-terminal antibody (Eptitomics #: 15654-1) in the brains of ST101-treated (S) 3xTg-AD mice, relative to untreated (C) 3xTg-AD mice. FIG. 10D is a lighter exposure of the Western blot in FIG. 10C. Animals were approximately 14.5 months old at sacrifice after 2.5 months of treatment with ST101 at 5 mg/kg/day in drinking water.
Brain extracts from 12-month-old 3xTg-AD mice that had been treated with ST101 (S) at 5/mg/kg/day in drinking water over 2 months were analyzed in Western blots using a C-terminal APP antibody (CT-20 Calbiochem).

ADAM10 = assay: Western blot of ADAM10 in cynomolgus monkey hippocampus; format: in vivo; conditions: male cynomolgus monkeys, 9 months oral, 100 mg/kg/day
Method: Male cynomolgus monkeys were treated for 9 months with 0, 10, 30 or 100 mg/kg/day ST101 with once daily oral drug administration. Hippocampal brain samples were analyzed in Western blots and ELISAs for APP fragments and Aβ. […] Reductions in a ˜55-kDa fragment were also seen with treatment in these groups. Black outlines depict image level enhancement in Adobe Photoshop CS4, to better visualize weak signals. […] However, long exposures reveal the presence of the 17-kDa APP fragment only in treated monkeys (antibody CT20, Calbiochem). This fragment was not detected in either the 30 or 10 mg/kg/day ST101 groups. Error bars indicate SEM (standard error of the mean) and * indicates statistical significance versus control (p<0.05). (S: ST101-treated animals, versus C: control animals).

ADAM17 (TACE) = assay: Western blot of TACE in 3xTg-AD mouse brain; format: in vivo; conditions: 3xTg-AD mice ~14.5 months old, 5 mg/kg/day in drinking water, 2 months as printed
Method: In addition to ADAM10, ADAM17 (TACE, which is Tumor Necrosis Factor converting enzyme) is known to act as an alpha-secretase of APP. Thus, it was tested in a Western blot whether ST101 reduces levels of ADAM17 (TACE).
The Western blot was obtained using a TACE specific antibody in brain extracts from ST101 treated 3×TG-AD mice (S) versus control mice (C). Animals were approximately 14.5 months old at sacrifice after 2 months of treatment with ST101 at 5 mg/kg/day in drinking water.

tau = assay: Western blot of tau species in 3xTg-AD mouse brain; format: in vivo; conditions: 3xTg-AD mice ~12 months old, 5 mg/kg/day, 2 months, overexposed blot
Source text: The status of tau phosphorylation, accumulation and degradation can be assessed in Western blots. Two anti-tau antibodies, directed against non-phosphorylated and phosphorylated tau, were used to probe brain extracts from the initial experiment. FIG. 12 is a series of Western blots depicting levels of full-length tau, tau accumulates, tau degradation products and phosphorylated tau levels in brain extracts from ST101 treated 3×TG-AD mice (S) versus control mice (C). Beta actin levels (Ac) were used as a loading control. P-tau, two panels per antibody: top—normal exposure; bottom—overexposure to visualize minor protein bands. Ac: beta actin antibody as protein loading control. Animals were approximately 12 months old at sacrifice after 2 months of treatment with ST101 at 5 mg/kg/day.

acetylated alpha-tubulin = assay: Western blot of acetylated alpha-tubulin in cynomolgus monkey hippocampus; format: in vivo; conditions: cynomolgus monkeys of Example 19, hippocampal brain samples
Source text: The effects on tubulin were confirmed in the group of cynomolgus monkeys described in example 19.

[2] = test system: LC3, Beclin 1, LAMP2A, cathepsin D; assay: Western blots of autophagy and lysosomal degradation mediators in 3xTg-AD mouse brain; format: in vivo; conditions: 3xTg-AD mice 12 months old, 5 mg/kg/day, 2 months
Method: The concentrations of several proteins involved in these pathways, specifically LC3, Beclin 1 (macroautophagy), LAMP2A (chaperone mediated autophagy), and cathepsin D (lysosomal protease) were measured in Western blots from 3xTg-AD mouse brains (FIG. 18, extracts from the same animals used in Examples 15-17.

Neuro2a cells = assay: Aβ production by Neuro2a cells, ELISA of culture medium; format: cell-based, murine; conditions: 24 hours treatment, vs control
Method: Neuro2a is a murine neuroblastoma cell line that is known to produce amyloid peptides Aβ1-40 and Aβ1-42 in amounts measurable by ELISA assays. These forms of Aβ have been correlated with the pathology in AD brain and Aβ1-42 in particular is postulated to have the ability to block a7 nicotinic receptors and to produce direct neurotoxic effects. Neuro2a cells were treated for 24 hours with ST101 added to the tissue culture medium. Tissue culture medium was collected and analyzed by ELISA for the presence of Aβ.

[3] = test system: rodent models of learning and memory; conditions: cited from earlier work
[4] = 3xTg-AD mice ~12 months old, 2 months, antibody CT20

**Q.** What does the source list for `O=C1N=C2C=CC=CN2C12Cc1ccccc1C2` [ST101, spiro(imidazo[1,2-a]pyridin-2(3H)-one-3,2′-indan)]?
**A.** long-term potentiation (LTP) [1]: efficacy in increasing long-term potentiation (LTP); AICD fragment (APP intracellular domain) (APP; 3xTg-AD mice 12 months old, 2 months, antibody CT-20): visible in brain extracts from ST101 treated mice (S) but not in control mice (C); C83 C-terminal APP fragment (APP; [4]): substantial decrease; C99 C-terminal APP fragment (APP; [4]): substantial decrease; full-length APP species, band shift (APP; [4]): slightly lowered molecular weight; major APP degradation intermediate (~50 kDa) (APP; [4]): disappearance or significant reduction; novel C-terminal APP fragment of about 17 kDa (APP; [4]): appearance; 17 kDa APP fragment (APP; 3xTg-AD mice ~14.5 months old, 2.5 months): lack of detection; C99 fragment (APP; 3xTg-AD mice ~14.5 months old, 2.5 months, Epitomics C-terminal APP antibody): reduction; APP CTFs (APP; 3xTg-AD mice ~14.5 months old, 2.5 months, antibody CT20): significant effect of reduction; C83 fragment (APP; 3xTg-AD mice ~14.5 months old, 2.5 months, compared with 12-month old mice): not reduced to the same degree; ADAM10 level (ADAM10): no differences; TACE levels (ADAM17 (TACE)): reduction of TACE levels in the majority of ST101 treated animals; accumulated tau and degradation products (tau; H7 antibody): disappearance; phosphorylated tau degradation product (tau; R-p-tau antibody): appearance of a new phosphorylated tau degradation product; acetylated alpha-tubulin fragments (acetylated alpha-tubulin): reduction; Beclin 1 concentration [2]: did not reveal any obvious differences; LAMP2A concentration [2]: did not reveal any obvious differences; LC3 concentration [2]: did not reveal any obvious differences; cathepsin D concentration [2]: did not reveal any obvious differences; Aβ1-40 concentration in cell culture medium (Neuro2a cells): without major effects; Aβ1-42 concentration in cell culture medium (Neuro2a cells): significantly reduced; memory deficits induced by chemical amnesic agents ([3]; methamphetamine, MK-801, scopolamine): attenuates; age-impaired memory ([3]; rodent models): significantly improves
